The source of these data is patent US11918693B2, “Ibuprofen and acetaminophen tablet” (GlaxoSmithKline Consumer Healthcare Holdings (US) LLC, priority 2019, dated 2024).

SMILES strings stand for the structures.

The test system of the series is patients with at least moderate pain after extraction of 3 third molar teeth. The series is described as follows: Study 1: phase 2 single-dose dental pain study, analgesic efficacy and tolerability of 3 FDCs of IBU/APAP vs IBU 400 mg and placebo. The settings on record: single oral dose, IBU dose 400 mg. The series is classed as in vivo, human. On the procedure:
Study 1 was a phase 2, 12-hour, 5-arm, randomized, double-blind, parallel group, in-patient, placebo-controlled study designed to determine the overall analgesic efficacy of 3 different FDCs of IBU/APAP compared with IBU 400 mg and placebo.
All study procedures were in compliance with the ethical principles originating in or derived from the Declaration of Helsinki and with all International Council for Harmonization Good Clinical Practice Guidelines, as well as local regulatory requirements. All patients provided written informed consent. Eligible patients were healthy males or females aged 16-40 years, inclusive, who had undergone extraction of 3 third molar teeth (with at least 2 having been partial or complete bony mandibular impactions) and had developed at least moderate pain within 5 hours of the oral surgery. Other entry criteria included: use of only the following preoperative medications/anesthetics: topical benzocaine, a short-acting parenteral local anesthetic (mepivacaine or lidocaine) with or without a vasoconstrictor and/or nitrous oxide; no contraindications to the study or rescue medications; and being sufficiently reliable, cooperative, and intelligent to record the requested information on the analgesic questionnaire form.
Upon experiencing at least moderate pain, patients were randomized 1:3:3:3:3 to receive a single oral dose of placebo; IBU 400 mg; FDC IBU/APAP 200 mg/500 mg; FDC IBU/APAP 250 mg/500 mg; or FDC IBU/APAP 300 mg/500 mg.
Patients could receive 2 additional doses of rescue medication at the study center. Patients were permitted to take rescue medication at any time but were encouraged to wait at least 1 hour after taking study medication to allow time for the medication to exert its effect. Patients who took rescue medication remained at the study site for the full duration of the study and continued to perform assessments.
At baseline, patients rated their pain severity using a categorical and a numerical pain severity rating (PSR) scale. The categorical PSR was a 4-point scale (none, mild, moderate, severe), with each category assigned a value from 0-3, respectively. The achievement of moderate pain at baseline was confirmed by a score of >50 mm on a 100-mm visual analog pain scale. Additionally, pain was assessed using an 11-point numerical PSR (0-10; 0=none to 10=worst possible pain).
Following the administration of study medication, patients were followed and evaluated on site for 12 hours. During that time, study participants provided self-ratings of pain severity (on both categorical and numerical PSR scales as described above) and pain relief: using a 5-point categorical pain relief rating (PRR) scale (0=none, 1=a little, 2=some, 3=a lot, and 4=complete) at 0.25, 0.5, 1, 1.5, 2, 3, 4, 5, 6, 7, 8, 9, 10, 11, and 12 hours post-treatment, after taking study medication, immediately before taking rescue medication, or at time of study withdrawal (if either occurred).
Additional patient assessments included time to first perceptible relief (TFPR) and time to meaningful pain relief (TMPR) using the double-stopwatch method, in which the first stopwatch was pressed by the patient when pain relief was first perceived, and the second when that relief became meaningful. Duration of pain relief was measured by the time to treatment failure (i.e., the time of first dose of rescue medication or dropout due to lack of efficacy). At 12 hours or immediately before taking rescue medication for the first time, patients also provided a Patient Global Evaluation based on a 6-point categorical scale ranging from 0 (very poor) to 5 (excellent).
The primary endpoint was the time-weighted sum of pain relief and pain intensity difference (PID) scores from baseline (time 0) through 8 hours (SPRID[4]0-8) after dosing based on PRR and categorical PSR. […]

For the molecule `CC(C)Cc1ccc(C(C)C(=O)O)cc1` (centres unmarked) [IBU, 2-(4-isobutylphenyl) propionic acid], the “Alveolar osteitis, treatment-emergent adverse event, %” value was “(2.2) %”; the “Dizziness, treatment-emergent adverse event, %” value was “(7.6) %”; the “Feeling hot, treatment-emergent adverse event, %” value is given as “(4.3) %”; the “Median time to first perceptible relief (TFPR)” value was 24.9 min. Also, the “Median time to meaningful relief (TMPR)” value is reported as 56.2 min; the “Median time to treatment failure (duration of relief)” value came to 10.4 h; the “Nausea, treatment-emergent adverse event, %” value is “(23.9) %”; the “TOTPAR0-2, mean (time-weighted sum of pain relief rating scores over 0-2 hours)” value is recorded as 4.0. The “Tension headache, treatment-emergent adverse event, %” value is on record as “(4.3) %”; the “Tremor, treatment-emergent adverse event, %” value is on record as “(2.2) %”; the “Vomiting, treatment-emergent adverse event, %” value is on record as “(15.2) %”. The “TOTPAR0-6, mean” value (0-6 hours) is 14.3. Moreover, the “TOTPAR0-8, mean” value (0-8 hours) was 18.4. Moreover, the “TOTPAR0-12, mean” value (0-12 hours) came out at 23.9.
